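All cell lines were grown in 96-well plates and treated with compound for 48 hours. At the GI50, growth is halved. Definition used: TGI = concentration required for complete inhibition of growth.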
Experiments:
Assay in all cases: inhibition of tumour cell growth, NCI panel, 48 h
SK-MEL-5 melanoma = system: SK-MEL-5 melanoma
PC-3 prostate = system: PC-3 prostate
A549 NSCLC = system: A549 NSCLC
HOP-62 NSCLC = system: HOP-62 NSCLC
HL-60(TB) leukemia = system: HL-60(TB) leukemia
UACC-62 melanoma = system: UACC-62 melanoma
HOP-92 NSCLC = system: HOP-92 NSCLC
SW-620 colon = system: SW-620 colon
RPMI-8226 leukemia = system: RPMI-8226 leukemia
A498 renal = system: A498 renal

SMILES	TGI (SK-MEL-5 melanoma) [µM]	TGI (PC-3 prostate)	TGI (A549 NSCLC)	TGI (HOP-62 NSCLC)	TGI (HL-60(TB) leukemia) [µM]	TGI (UACC-62 melanoma)	TGI (HOP-92 NSCLC)	TGI (SW-620 colon)	TGI (RPMI-8226 leukemia)	GI50 (SK-MEL-5 melanoma) [µM]	GI50 (PC-3 prostate)	GI50 (A549 NSCLC)	GI50 (HOP-62 NSCLC)	GI50 (RPMI-8226 leukemia)	GI50 (HL-60(TB) leukemia) [µM]	GI50 (UACC-62 melanoma)	GI50 (HOP-92 NSCLC)	GI50 (SW-620 colon)	TGI (A498 renal) [µM]	GI50 (A498 renal) [µM]
NC(=O)C(NC=O)c1ccccc1 (centres undefined)	> 100	> 100 µM	> 100 µM	> 100 µM	> 100	> 100 µM	> 100 µM	> 100 µM												
CC1(C)CC2C=C(C=O)C3(C=O)CC3(C)C2C1 (centres undefined)	3.51	4.33 µM	27.2 µM	8.86 µM	> 100	17.1 µM	3.97 µM	2.4 µM	3.95 µM											
COc1cccc(C2NC(=S)NC(C)=C2C(=O)Nc2ccc(F)c(Cl)c2)c1 (centres undefined)	32.9	> 50 µM	> 50 µM	> 50 µM	> 50	> 50 µM	> 50 µM	> 50 µM	> 50 µM	13.3	23.2 µM	20.8 µM	> 50 µM	11.6 µM	17.4	29.3 µM	> 50 µM	> 50 µM		
CC(=O)OC1CCC2(C)C(=CCC3C2CCC2(C)C(C(C)C(=O)O)CCC32)C1 (centres undefined)	> 100	> 100 µM	> 100 µM	> 100 µM		> 100 µM	> 100 µM	> 100 µM	> 100 µM										> 100	
Cc1cc(C(=O)N2CCN(Cc3ccccc3)CC2)c(C)o1	> 100		> 100 µM	> 100 µM	> 100	> 100 µM	> 100 µM	> 100 µM	> 100 µM										> 100	
Cc1cc(C)cc(Sc2c([N+](=O)[O-])ncn2C)c1	26.7		> 100 µM	> 100 µM		29.8 µM	41.7 µM	41.4 µM	> 100 µM										77.1	
CNC(C)C(=O)N[C@H](C(=O)N1CCC[C@@H]1CN(CCc1ccccc1)C(=O)C(F)(F)F)[C@H](C)OCC#CC#CCO[C@H](C)[C@H](NC(=O)[C@H](C)NC)C(=O)N1CCC[C@H]1CN(CCc1ccccc1)C(=O)C(F)(F)F (some centres undefined)	2.62	3.23 µM	3.27 µM	2.46 µM		3.24 µM	1.61 µM	3.16 µM	3.52 µM	1.31	1.72 µM	1.72 µM	0.729 µM	1.53 µM		1.77 µM	0.373 µM	1.63 µM	2.61	1.03
Cc1cc(NS(=O)(=O)c2ccc(NC(=O)c3cccc4c(Nc5ccc(S(=O)(=O)Nc6cc(C)on6)cc5)c5ccccc5nc34)cc2)no1	> 100		> 100 µM	> 100 µM	67	35 µM	41 µM	> 100 µM	> 100 µM										> 100	
CC1(C)C(=S)C(C)(C)C1=S	> 100	> 100 µM	> 100 µM	> 100 µM		> 100 µM		> 100 µM	> 100 µM											
CN(C)CCN=Cc1c2ccccc2c(=O)n2c1oc1ccccc12	16.1	29.9 µM	20.7 µM	26.7 µM	55	23.6 µM	44.1 µM		> 100 µM	2.89	11.5 µM	4.13 µM	12.1 µM	11.3 µM	10.9	10.8 µM	12.3 µM			
O=c1c2ccccc2c(=O)c2c1cc(Cl)c1[nH]c3c([nH]c12)c(Cl)cc1c(=O)c2ccccc2c(=O)c13			> 100 µM	> 100 µM	> 100	> 100 µM		> 100 µM	> 100 µM										> 100	
N#Cc1cccc(NC(=O)c2oc3ccccc3c2-c2cnn(-c3ccccc3)c2)c1	> 500	> 500 µM	> 500 µM	> 500 µM	> 500	> 500 µM	> 500 µM	> 500 µM	> 500 µM	> 500	> 500 µM	> 500 µM	320 µM	> 500 µM	> 500	> 500 µM	121 µM	> 500 µM		
N#CCC(=O)N/N=C1\C(=O)N(c2ccc(Cl)cc2)C(=O)C(=O)C1c1nc2ccccc2o1 (centres undefined)	> 100		> 100 µM	> 100 µM	> 100	> 100 µM	> 100 µM	> 100 µM											> 100	
O=C(Nc1ccccc1Br)c1cccc([N+](=O)[O-])c1O	5.11		> 100 µM	9.79 µM	12.9	16.4 µM	4.99 µM	> 100 µM	6.27 µM										9.05	
CC(=O)OC1C(CCl)OC(N=[N+]=[N-])C(OC(C)=O)C1OC(C)=O (centres undefined)	> 100		> 100 µM	> 100 µM	> 100	> 100 µM		> 100 µM	> 100 µM										> 100	
O=C(O)C1c2ccccc2C(C(=O)O)c2ccccc21 (centres undefined)	> 100		> 100 µM	> 100 µM	> 100	> 100 µM	> 100 µM	> 100 µM	> 100 µM										> 100	
CC(C)(C)[Si](C)(C)O/N=C\c1ccc(O[Si](C)(C)C(C)(C)C)cc1	> 100		> 100 µM	> 100 µM	> 100	> 100 µM		> 100 µM	> 100 µM										> 100	
C=C1Oc2nc3ccccc3c(=O)n2C1(C)C	> 100		> 100 µM	> 100 µM	> 100	> 100 µM	> 100 µM	> 100 µM	> 100 µM										> 100	
C/C(=C\CCc1ccoc1)CC/C=C(\C)CCCN1CCC(CO)CC1	2.84		13.8 µM	9.6 µM	3.95	3.74 µM	6.16 µM	5.08 µM	4.48 µM	1.5		3.26 µM	3.39 µM	2.03 µM	1.96	1.77 µM	1.44 µM	2.06 µM	5.96	1.96

SMILES	TGI (SK-MEL-5 melanoma) [µM]	TGI (PC-3 prostate)	TGI (A549 NSCLC)	TGI (HOP-62 NSCLC)	TGI (HL-60(TB) leukemia) [µM]	TGI (UACC-62 melanoma)	TGI (HOP-92 NSCLC)	TGI (SW-620 colon)	TGI (RPMI-8226 leukemia)	GI50 (SK-MEL-5 melanoma) [µM]	GI50 (PC-3 prostate)	GI50 (A549 NSCLC)	GI50 (HOP-62 NSCLC)	GI50 (RPMI-8226 leukemia)	GI50 (HL-60(TB) leukemia) [µM]	GI50 (UACC-62 melanoma)	GI50 (HOP-92 NSCLC)	GI50 (SW-620 colon)	TGI (A498 renal) [µM]	GI50 (A498 renal) [µM]
CC[O-].Cc1ccc2cccc([O-])c2n1.Cc1ccc2cccc([O-])c2n1.Cc1ccc2cccc([O-])c2n1.[Ti+4]	52		20.6 µM	> 100 µM	16	> 52.2 µM	> 100 µM	> 61.1 µM	49.5 µM	22.6		11.1 µM	53.6 µM	11.5 µM	3.3	> 35.3 µM	> 100 µM	29.6 µM	> 100	> 63.2
COc1cc2cc[n+]3c4cc(OC)c(OC)cc4c(C)cc3c2cc1OC	> 100		> 100 µM	> 100 µM	> 100	> 100 µM	> 100 µM	> 100 µM	> 100 µM											
C=C(C)[C@@H]1CCC2=C[C@@H](OC2=O)[C@@H](C(=C)C)C(=O)/C=C(/C)C(=O)C1	39.4	39.3 µM	> 100 µM	> 100 µM		61.1 µM	58.2 µM	68.4 µM	17.1 µM	18.6	8.79 µM	36.9 µM	36.2 µM	1.76 µM		24.8 µM	17.4 µM	24.7 µM	69.6	26.7
COC(=O)[C@H](CC(C)C)NC(=O)NC(=O)NC(=O)CI	30.3	25.7 µM	39.6 µM	34.2 µM		28.2 µM	4.98 µM	3.53 µM	7.75 µM	16.4	11.8 µM	20.3 µM	18.2 µM	2.92 µM		13.4 µM	2.14 µM	1.83 µM	32.6	17.7
CN1c2ccccc2S(=O)(=O)n2c(COc3ccc(Cl)cc3)nnc21	> 100	> 100 µM	> 100 µM	47.8 µM	> 100	> 100 µM	63.2 µM	> 100 µM											> 100	
O=C(O)C#CCO	> 100		> 100 µM	> 100 µM	> 100	> 100 µM	> 100 µM	> 100 µM	> 100 µM										> 100	
C=C1C(=O)O[C@@H]2C[C@@H]1CC[C@@]1(C)O[C@@H]1CC[C@@]1(C)O[C@@H]1CC[C@@]2(C)O	31.4	> 100 µM	> 100 µM	> 100 µM	32.8	30.2 µM		42.2 µM	79.7 µM	16.2	34.9 µM	73.8 µM	32.9 µM	14.4 µM	10.3	14.6 µM		14.1 µM		
C/C(=N/NC(=O)C(N)=O)C(CC(C(=O)Nc1ccccc1C)/C(C)=N\NC(=O)C(N)=O)C(=O)Nc1ccccc1C (centres undefined)	> 100		> 100 µM	> 100 µM	> 100		> 100 µM	> 100 µM	> 100 µM										> 100	
COC(=O)C1CCC(Nc2cccc(C(F)(F)F)c2)=N1 (centres undefined)			> 100 µM	> 100 µM	> 100	> 100 µM	> 100 µM	> 100 µM	> 100 µM										> 100	
O=C(O)CCCCn1cnc2c(=S)nc[nH]c21	> 100	> 100 µM	> 100 µM	> 100 µM		> 100 µM	> 100 µM	> 100 µM	> 100 µM										> 100	
NCC1OC(OC2C(CO)OC(OC3C(O)C(N)CC(N)C3OC3OC(CO)C(O)C(O)C3N)C2O)C(N)C(O)C1O (centres undefined)		> 50 µg/mL	> 50 µg/mL	> 50 µg/mL		> 50 µg/mL	> 50 µg/mL	> 50 µg/mL	> 50 µg/mL		> 50 µg/mL	> 50 µg/mL	> 50 µg/mL	> 50 µg/mL		> 50 µg/mL	> 50 µg/mL	> 50 µg/mL		
CC1=C(c2cc(C(=O)Nc3ccc(Cl)c(Cl)c3)nc(N)n2)Sc2ccccc2N1	> 100		> 100 µM	> 100 µM	> 100	> 100 µM	> 100 µM	> 100 µM	> 100 µM										> 100	
CCC[CH2][Sn]([CH2]CCC)([O]C(=O)c1nccnc1N)[O]C(=O)c1nccnc1N	2.49		12.7 µM	3.57 µM	1.42	2.16 µM	2.43 µM	1.26 µM		1.24		3.52 µM	2.12 µM		0.262	0.998 µM	1.16 µM	0.319 µM	2.07	0.819
CCN(CC)CCNC(=O)c1cccc2cc3ccccc3nc12	17.1		> 100 µM	36.9 µM	24.4	15.9 µM	27.8 µM	> 100 µM											22.2	
Cc1ccccc1N=Nc1c(O)[nH]c2ccccc12	> 100	> 100 µM	> 100 µM	> 100 µM	> 100	> 100 µM		> 100 µM	> 100 µM											
O=C(O)CCC1(Br)CCCCC(Br)C1=O (centres undefined)	> 100		> 100 µM	> 100 µM	> 100	> 100 µM	> 100 µM	> 100 µM	> 100 µM										> 100	
COc1ccc(-c2cc(/C=C3\C(=O)Nc4ccc(OC)cc43)[nH]n2)cc1	> 100	> 100 µM	> 100 µM	> 100 µM	> 100	> 100 µM	> 100 µM	> 100 µM	> 100 µM	4.46	> 100 µM	> 100 µM	10.6 µM	> 100 µM	0.821	6.43 µM	> 100 µM	0.912 µM		
N#CC(C#N)=CSc1ccccc1	> 100		> 100 µM	> 100 µM	> 100	82.2 µM	> 100 µM	> 100 µM	> 100 µM											
CC(=O)OCC1OC(OC2=C(CC=C(Cl)Cl)C(=O)c3ccccc3C2=O)C(OC(C)=O)C(OC(C)=O)C1OC(C)=O (centres undefined)	17	11.5 µM	41.4 µM	34.4 µM		11.2 µM	1.59 µM	3.88 µM	6.78 µM	4.32	2.66 µM	19.5 µM	18.5 µM	2.05 µM		2.85 µM	0.222 µM	1.74 µM	20	3.32

Source: PubChem BioAssay (NCI)
